Laboratory results: patent US11085016B1, “Method for screening bacteria capable of degrading ethylene oxide” (priority 2020, dated 2021)

Legend:
[1] = Ethylene oxide tolerance acclimatization: growth on medium plates with increasing ethylene oxide; design: key: + normal growth; ± low growth; details: Example 3, carbon source 100%
Description: Ethylene oxide tolerance acclimatization medium plates were made as follows: Peptone 10 g, glucose 40 g, agar 15 g, pH adjusted to 5.4-5.8, and filled with distilled water to 1000 mL which was distributed into 250 mL. Sterilization was then performed at 121° C. for 20 min. The medium was heated to melt before use. When the temperature of the medium was cooled down to 50-56° C., 25 mg, 50 mg, 125 mg, and 200 mg of ethylene oxide was added, respectively, by using a sealed injection needle to obtain four ethylene oxide tolerance acclimatization medium plates containing different concentrations of ethylene oxide (100 mg/L, 200 mg/L, 500 mg/L, and 800 mg/L, respectively), named as ethylene oxide tolerance acclimatization medium plate A, ethylene oxide tolerance acclimatization medium plate B, ethylene oxide tolerance acclimatization medium plate C, and ethylene oxide tolerance acclimatization medium plate D, respectively.
(§1) The purified bacteria having a potential for degrading ethylene oxide were streak-inoculated on ethylene oxide tolerance acclimatization medium A, and cultured at a constant temperature of 37° C. for 48 h; a single colony having a largest radius was picked for further inoculation on ethylene oxide tolerance acclimatization medium B, and cultured at a constant temperature of 37° C. for 48 h; a single colony having a largest radius was picked for further inoculation on ethylene oxide tolerance acclimatization medium C, and cultured at a constant temperature of 37° C. for 48 h; a single colony having a largest radius was picked for further inoculation on ethylene oxide tolerance acclimatization medium D, and cultured at a constant temperature of 37° C. for 48 h, to obtain ethylene oxide-tolerant bacteria. Growth situation of the strains on the ethylene oxide tolerance acclimatization medium plates A, B, C, and D are as shown in Table 1.

[2] = Ethylene oxide degradation acclimatization: growth on 800 mg/L ethylene oxide plates with decreasing carbon source; design: key: + normal growth; ± low growth
Description: Ethylene oxide degradation acclimatization medium plates were made as follows: Peptone 10 g, glucose (20 g, 12 g, 4 g, and 0 g, respectively), agar 15 g, pH adjusted to 5.4-5.8, and filled with distilled water to 1000 mL which was distributed into 250 mL. Sterilization was then performed at 121° C. for 20 min. The medium was heated to melt before use. When the temperature of the medium was cooled down to 50-56° C., 200 mg of ethylene oxide was added by using a sealed injection needle to obtain four ethylene oxide degradation acclimatization medium plates containing different concentrations of carbon source (50%, 30%, 10%, 0%, respectively), named as ethylene oxide degradation acclimatization medium plate A, ethylene oxide degradation acclimatization medium plate B, ethylene oxide degradation acclimatization medium plate C, and ethylene oxide degradation acclimatization medium plate D, respectively.
as §1, with “The ethylene oxide-tolerant” for “The purified”, “bacteria” for “bacteria having a potential for degrading ethylene oxide”, “on Ethylene Oxide Degradation Acclimatization” for “on ethylene oxide tolerance acclimatization”, “48 h; a single colony having a largest radius was picked and preserved on an agar medium bevel containing corresponding nutritional components in Ethylene Oxide Degradation Acclimatization medium D,” for “48 h,”, “ethylene oxide-degrading strains.” for “ethylene oxide-tolerant bacteria.”, “oxide degradation” for “oxide tolerance”

[3] = Comparative experiment for the degradation of ethylene oxide (gas chromatography); details: Example 3
Description: The bacteria having a potential for degrading ethylene oxide which have not been subjected to the acclimatization steps and the strains capable of tolerating and degrading ethylene oxide obtained after the acclimatization steps were inoculated into activation medium, respectively, for activation, and cultured to a bacteria concentration of 10^10-10^12 cfu/mL in the culture.
The activation medium was made as follows: Peptone 10 g, filled with distilled water to 1000 mL which was distributed into 400 mL. Then, sterilization was performed at 121° C. for 20 min. Thereafter, the temperature of the medium was cooled down to RT for storage. 160 mg and 320 mg of ethylene oxide was added, respectively, by using a sealed syringe to obtain two activation media containing different concentrations (400 mg/L and 800 mg/L, respectively) of ethylene oxide for the test of degrading capability of the ethylene oxide-degrading strains.
Comparative experiment for the degradation of ethylene oxide was performed with the following test groups and control group.
Test group 1: 5 mL of an activation culture of the bacteria capable of tolerating and degrading ethylene oxide was inoculated into 400 mL of activation media containing 400 mg/L (1A) and 800 mg/L (1B), respectively, of ethylene oxide. The amount of live bacteria in the medium was 10^8-10^10 cfu/mL.
Test group 2: 5 mL of an activation culture of the bacteria having a potential for degrading ethylene oxide which have not been subjected to the acclimatization steps was inoculated into 400 mL of activation media containing 400 mg/L (2A) and 800 mg/L (2B), respectively, of ethylene oxide. The amount of live bacteria in the medium was 10^8-10^10 cfu/mL.
Control group: 400 mL of activation media containing 400 mg/L (control group A) and 800 mg/L (control group B), respectively, of ethylene oxide with no bacteria strain inoculated.
The test groups and control groups are placed together in an incubated for culturing at 37° C. for 48 h. […] The result of degradation was detected by gas chromatography. […]
the subject samples to be analyzed were prepared by diluting samples from the treatment and control groups 5 times with deionized water;
after the GC instrument is stabilized and under the same conditions, 2 μL each of the ethylene oxide standards and the diluted samples to be analyzed were injected into the GC instrument, wherein each sample was measured twice in parallel;
qualitive determination was conducted according to the retention time and quantitative calculation on each peak area was performed to take the average value; […]
the degradation rate of ethylene oxide for each sample was calculated according to the following formula: Degradation Rate (%)=(Control Group Concentration−Treatment Group Concentration)/Control Group Concentration×100. […]

Lactobacillus
Growth, C (100%)/EO(mg/L) 100 ([1]; EO 100 mg/L): +
Growth, C (100%)/EO(mg/L) 200 ([1]; EO 200 mg/L): +
Growth, C (100%)/EO(mg/L) 500 ([1]; EO 500 mg/L): +
Growth, C (100%)/EO(mg/L) 800 ([1]; EO 800 mg/L): +
Growth, EO (800 mg/L)/ C (%) 0 % ([2]; Example 3, carbon source 0%): +
Growth, EO (800 mg/L)/ C (%) 10 % ([2]; Example 3, carbon source 10%): +
Growth, EO (800 mg/L)/ C (%) 30 % ([2]; Example 3, carbon source 30%): +
Growth, EO (800 mg/L)/ C (%) 50 % ([2]; Example 3, carbon source 50%): +
EO (400 mg/L)/C (0%) Degradation rate (%) After Acc. ([3]; EO 400 mg/L, strain after acclimatization): 75.96%
EO (400 mg/L)/C (0%) Degradation rate (%) Before Acc. ([3]; EO 400 mg/L, strain before acclimatization): 17.32%
EO (800 mg/L)/C (0%) Degradation rate (%) After Acc. ([3]; EO 800 mg/L, strain after acclimatization): 64.83%
EO (800 mg/L)/C (0%) Degradation rate (%) Before Acc. ([3]; EO 800 mg/L, strain before acclimatization): 6.89%
